This is an account of results in ChEMBL document CHEMBL5715954, “Silencing c-Myc translation as a therapeutic strategy through targeting PI3Kδ and CK1ε in hematological malignancies” (Blood, 2017).

Parameters in all cases: scale not given: the % may be the effect or the level left
For experiment [1], the target named is Mitogen-activated protein kinase kinase kinase 21 (Homo sapiens) (UniProt Q5TCX8). The experiment is described as follows: Inhibition of human MLK4 assessed as enzyme activity at 1 uM using MEK1 (K97R) as substrate preincubated for 20 mins followed by [gamma-33P]-ATP addition and measured after 120 mins by radiometric Hot-SpotSM Kinase assay relative to control.
Mitogen-activated protein kinase kinase kinase 21 (Homo sapiens), sequence (Q5TCX8 whole entry): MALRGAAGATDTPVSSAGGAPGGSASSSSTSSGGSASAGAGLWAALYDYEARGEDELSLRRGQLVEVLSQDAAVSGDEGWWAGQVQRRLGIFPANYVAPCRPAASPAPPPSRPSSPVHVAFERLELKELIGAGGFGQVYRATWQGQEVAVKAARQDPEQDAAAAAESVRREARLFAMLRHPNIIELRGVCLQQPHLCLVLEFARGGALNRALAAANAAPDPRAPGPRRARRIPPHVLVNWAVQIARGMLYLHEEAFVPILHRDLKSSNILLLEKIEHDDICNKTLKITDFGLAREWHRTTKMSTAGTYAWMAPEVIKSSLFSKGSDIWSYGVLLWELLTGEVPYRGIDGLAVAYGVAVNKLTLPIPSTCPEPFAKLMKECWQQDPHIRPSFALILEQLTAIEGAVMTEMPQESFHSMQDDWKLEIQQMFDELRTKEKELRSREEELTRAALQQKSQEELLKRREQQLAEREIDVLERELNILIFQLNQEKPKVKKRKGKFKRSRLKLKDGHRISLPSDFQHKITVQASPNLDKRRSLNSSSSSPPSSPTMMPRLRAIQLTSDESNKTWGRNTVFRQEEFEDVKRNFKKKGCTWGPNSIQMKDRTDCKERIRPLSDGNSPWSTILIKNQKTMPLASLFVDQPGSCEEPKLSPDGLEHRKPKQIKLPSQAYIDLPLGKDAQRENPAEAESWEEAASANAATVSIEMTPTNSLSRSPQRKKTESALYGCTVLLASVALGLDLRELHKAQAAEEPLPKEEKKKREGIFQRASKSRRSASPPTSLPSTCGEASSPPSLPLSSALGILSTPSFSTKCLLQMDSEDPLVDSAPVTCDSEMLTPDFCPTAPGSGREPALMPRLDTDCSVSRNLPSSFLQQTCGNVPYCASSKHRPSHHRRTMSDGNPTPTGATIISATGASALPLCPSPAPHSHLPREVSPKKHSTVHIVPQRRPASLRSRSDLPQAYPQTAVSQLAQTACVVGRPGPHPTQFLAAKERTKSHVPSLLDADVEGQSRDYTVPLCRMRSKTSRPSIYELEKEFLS

The target of experiment [2] is Dual specificity tyrosine-phosphorylation-regulated kinase 1B (Homo sapiens) (UniProt Q9Y463). Kind of experiment: Inhibition of human DYRK1B assessed as enzyme activity at 1 uM using RRRFRPASPLRGPPK as substrate preincubated for 20 mins followed by [gamma-33P]-ATP addition and measured after 120 mins by radiometric Hot-SpotSM Kinase assay relative to control.
Dual specificity tyrosine-phosphorylation-regulated kinase 1B (Homo sapiens), sequence (Q9Y463 whole entry, looked up): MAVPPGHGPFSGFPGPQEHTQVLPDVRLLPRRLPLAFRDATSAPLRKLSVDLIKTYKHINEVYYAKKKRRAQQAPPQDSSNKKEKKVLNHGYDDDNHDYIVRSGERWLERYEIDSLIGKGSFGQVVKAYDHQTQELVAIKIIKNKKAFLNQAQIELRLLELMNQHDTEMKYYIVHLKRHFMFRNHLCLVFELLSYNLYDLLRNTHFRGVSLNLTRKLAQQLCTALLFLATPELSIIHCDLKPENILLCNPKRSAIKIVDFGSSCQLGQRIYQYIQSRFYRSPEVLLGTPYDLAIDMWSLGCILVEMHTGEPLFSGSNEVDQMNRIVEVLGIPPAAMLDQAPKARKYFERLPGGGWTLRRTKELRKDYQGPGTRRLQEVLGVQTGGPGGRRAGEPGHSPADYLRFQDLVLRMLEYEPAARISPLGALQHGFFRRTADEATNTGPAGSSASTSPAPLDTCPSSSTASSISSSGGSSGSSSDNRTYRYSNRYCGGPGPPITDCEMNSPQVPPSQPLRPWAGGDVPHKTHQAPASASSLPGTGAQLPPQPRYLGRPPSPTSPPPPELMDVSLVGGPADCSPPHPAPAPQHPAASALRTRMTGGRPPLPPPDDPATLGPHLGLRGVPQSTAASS
The target of experiment [3] is Mitogen-activated protein kinase 3 (Homo sapiens) (UniProt P27361). The experiment is described as follows: Inhibition of human ERK1 assessed as enzyme activity at 1 uM using myelin basic protein as substrate preincubated for 20 mins followed by [gamma-33P]-ATP addition and measured after 120 mins by radiometric Hot-SpotSM Kinase assay relative to control.
Mitogen-activated protein kinase 3 (Homo sapiens), sequence (P27361 whole entry): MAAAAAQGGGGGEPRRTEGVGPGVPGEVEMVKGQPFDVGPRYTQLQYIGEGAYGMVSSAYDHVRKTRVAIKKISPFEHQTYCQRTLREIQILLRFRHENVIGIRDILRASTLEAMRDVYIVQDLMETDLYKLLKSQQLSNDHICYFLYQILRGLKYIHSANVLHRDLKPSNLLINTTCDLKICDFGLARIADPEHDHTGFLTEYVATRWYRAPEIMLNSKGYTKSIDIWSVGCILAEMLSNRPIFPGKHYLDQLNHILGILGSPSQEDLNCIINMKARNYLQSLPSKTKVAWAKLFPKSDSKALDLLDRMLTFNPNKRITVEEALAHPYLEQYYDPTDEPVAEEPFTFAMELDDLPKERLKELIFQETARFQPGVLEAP
Experiment [4] addresses T1, Dual specificity mitogen-activated protein kinase kinase 3 (Homo sapiens) (UniProt P46734).
T1 sequence (whole entry): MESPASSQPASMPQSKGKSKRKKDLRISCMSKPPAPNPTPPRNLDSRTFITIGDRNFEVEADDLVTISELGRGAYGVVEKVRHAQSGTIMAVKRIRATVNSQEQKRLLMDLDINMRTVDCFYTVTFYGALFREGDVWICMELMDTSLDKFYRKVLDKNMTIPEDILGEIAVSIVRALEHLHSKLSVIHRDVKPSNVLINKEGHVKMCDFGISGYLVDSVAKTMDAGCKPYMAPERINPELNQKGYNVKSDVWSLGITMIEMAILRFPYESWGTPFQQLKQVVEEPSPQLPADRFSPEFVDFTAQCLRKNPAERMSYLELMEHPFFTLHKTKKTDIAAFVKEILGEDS
The experiment is described as follows: Inhibition of human MEK3 assessed as enzyme activity at 1 uM using p38a (K53A) as substrate preincubated for 20 mins followed by [gamma-33P]-ATP addition and measured after 120 mins by radiometric Hot-SpotSM Kinase assay relative to control.

Experiment [5] concerns the target Cyclin-dependent kinase 5/CDK5 activator 1 (Homo sapiens) (UniProt Q00535+Q15078). Kind of experiment: Inhibition of human CDK5/p35 assessed as enzyme activity at 1 uM using RB Protein as substrate preincubated for 20 mins followed by [gamma-33P]-ATP addition and measured after 120 mins by radiometric Hot-SpotSM Kinase assay relative to control. It counts as protein-complex assay.

In experiment [6] the target is Serine/threonine-protein kinase VRK2 (Homo sapiens) (UniProt Q86Y07). Kind of experiment: Inhibition of human VRK2 assessed as enzyme activity at 1 uM using casein as substrate preincubated for 20 mins followed by [gamma-33P]-ATP addition and measured after 120 mins by radiometric Hot-SpotSM Kinase assay relative to control.
Serine/threonine-protein kinase VRK2 (Homo sapiens), sequence (Q86Y07 whole entry): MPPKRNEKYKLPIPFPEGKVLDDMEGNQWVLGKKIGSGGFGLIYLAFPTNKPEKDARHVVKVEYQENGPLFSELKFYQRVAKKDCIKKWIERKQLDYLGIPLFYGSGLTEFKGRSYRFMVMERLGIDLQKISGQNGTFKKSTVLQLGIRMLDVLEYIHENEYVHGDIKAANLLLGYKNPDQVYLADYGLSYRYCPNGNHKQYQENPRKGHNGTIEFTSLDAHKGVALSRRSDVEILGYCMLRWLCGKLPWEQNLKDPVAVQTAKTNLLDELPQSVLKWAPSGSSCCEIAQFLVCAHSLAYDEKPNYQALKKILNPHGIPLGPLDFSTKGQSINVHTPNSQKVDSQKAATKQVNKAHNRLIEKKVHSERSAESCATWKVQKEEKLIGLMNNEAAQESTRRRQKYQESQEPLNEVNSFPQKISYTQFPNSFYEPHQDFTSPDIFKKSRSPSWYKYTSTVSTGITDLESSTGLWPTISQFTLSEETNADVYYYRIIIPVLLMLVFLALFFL
Experiment [7] concerns the target T2, Serine/threonine-protein kinase Nek9 (Homo sapiens) (UniProt Q8TD19).
T2 sequence (whole entry): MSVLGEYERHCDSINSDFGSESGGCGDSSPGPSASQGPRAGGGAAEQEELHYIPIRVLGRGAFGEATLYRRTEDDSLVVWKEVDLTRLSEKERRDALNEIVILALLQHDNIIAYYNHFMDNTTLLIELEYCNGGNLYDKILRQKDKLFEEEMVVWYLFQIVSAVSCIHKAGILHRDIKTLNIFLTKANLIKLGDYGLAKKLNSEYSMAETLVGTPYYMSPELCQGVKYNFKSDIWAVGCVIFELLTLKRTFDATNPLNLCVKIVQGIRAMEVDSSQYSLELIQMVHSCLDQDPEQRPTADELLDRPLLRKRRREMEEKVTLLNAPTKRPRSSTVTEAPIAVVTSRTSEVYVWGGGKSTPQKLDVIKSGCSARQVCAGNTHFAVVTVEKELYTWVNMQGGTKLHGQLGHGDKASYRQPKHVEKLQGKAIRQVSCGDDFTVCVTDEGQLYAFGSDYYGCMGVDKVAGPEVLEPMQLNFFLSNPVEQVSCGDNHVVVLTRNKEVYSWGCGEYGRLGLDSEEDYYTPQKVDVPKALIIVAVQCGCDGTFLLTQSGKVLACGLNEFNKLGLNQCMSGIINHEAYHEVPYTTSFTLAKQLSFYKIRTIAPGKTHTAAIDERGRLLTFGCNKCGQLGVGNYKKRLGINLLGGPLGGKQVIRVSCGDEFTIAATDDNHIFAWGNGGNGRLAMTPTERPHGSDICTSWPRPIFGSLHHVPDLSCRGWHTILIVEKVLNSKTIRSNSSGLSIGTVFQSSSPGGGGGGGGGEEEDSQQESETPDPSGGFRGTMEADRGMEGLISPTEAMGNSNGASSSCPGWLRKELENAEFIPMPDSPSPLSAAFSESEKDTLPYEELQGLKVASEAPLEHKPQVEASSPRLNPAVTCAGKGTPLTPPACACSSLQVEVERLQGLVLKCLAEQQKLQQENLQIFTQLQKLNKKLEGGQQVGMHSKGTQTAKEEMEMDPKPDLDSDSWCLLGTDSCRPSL
Kind of experiment: Inhibition of human NEK9 assessed as enzyme activity at 1 uM using myelin basic protein as substrate preincubated for 20 mins followed by [gamma-33P]-ATP addition and measured after 120 mins by radiometric Hot-SpotSM Kinase assay relative to control.

Experiment [8] addresses SRSF protein kinase 3 (Homo sapiens) (UniProt Q9UPE1). Kind of experiment: Inhibition of human MSSK1 assessed as enzyme activity at 1 uM using GRSRSRSRSR as substrate preincubated for 20 mins followed by [gamma-33P]-ATP addition and measured after 120 mins by radiometric Hot-SpotSM Kinase assay relative to control.
For experiment [9], the target named is Serine/threonine-protein kinase NIM1 (Homo sapiens) (UniProt Q8IY84). Kind of experiment: Inhibition of human NIM1 assessed as enzyme activity at 1 uM using KKKVSRSGLYRSPSMPENLNRPR as substrate preincubated for 20 mins followed by [gamma-33P]-ATP addition and measured after 120 mins by radiometric Hot-SpotSM Kinase assay relative to control.
Serine/threonine-protein kinase NIM1 (Homo sapiens), sequence (Q8IY84 whole entry): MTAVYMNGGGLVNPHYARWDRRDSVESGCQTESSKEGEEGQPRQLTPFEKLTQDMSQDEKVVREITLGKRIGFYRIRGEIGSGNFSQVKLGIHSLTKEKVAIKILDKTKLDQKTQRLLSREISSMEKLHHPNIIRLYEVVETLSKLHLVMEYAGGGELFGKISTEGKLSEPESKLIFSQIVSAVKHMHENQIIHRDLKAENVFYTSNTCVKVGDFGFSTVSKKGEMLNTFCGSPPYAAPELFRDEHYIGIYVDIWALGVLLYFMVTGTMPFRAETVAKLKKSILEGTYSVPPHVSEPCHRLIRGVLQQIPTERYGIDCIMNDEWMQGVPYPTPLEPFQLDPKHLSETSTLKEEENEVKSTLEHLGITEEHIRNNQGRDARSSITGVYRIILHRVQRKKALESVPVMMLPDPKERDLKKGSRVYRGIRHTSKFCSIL
Experiment [10] deals with CDK17/Cyclin-Y (Homo sapiens) (UniProt Q00537+Q8ND76). Kind of experiment: Inhibition of human CDK17/cyclin Y assessed as enzyme activity at 1 uM using myelin basic protein as substrate preincubated for 20 mins followed by [gamma-33P]-ATP addition and measured after 120 mins by radiometric Hot-SpotSM Kinase assay relative to control. It is filed as protein-complex assay.
CDK17/Cyclin-Y (Homo sapiens), sequence (Q00537 whole entry): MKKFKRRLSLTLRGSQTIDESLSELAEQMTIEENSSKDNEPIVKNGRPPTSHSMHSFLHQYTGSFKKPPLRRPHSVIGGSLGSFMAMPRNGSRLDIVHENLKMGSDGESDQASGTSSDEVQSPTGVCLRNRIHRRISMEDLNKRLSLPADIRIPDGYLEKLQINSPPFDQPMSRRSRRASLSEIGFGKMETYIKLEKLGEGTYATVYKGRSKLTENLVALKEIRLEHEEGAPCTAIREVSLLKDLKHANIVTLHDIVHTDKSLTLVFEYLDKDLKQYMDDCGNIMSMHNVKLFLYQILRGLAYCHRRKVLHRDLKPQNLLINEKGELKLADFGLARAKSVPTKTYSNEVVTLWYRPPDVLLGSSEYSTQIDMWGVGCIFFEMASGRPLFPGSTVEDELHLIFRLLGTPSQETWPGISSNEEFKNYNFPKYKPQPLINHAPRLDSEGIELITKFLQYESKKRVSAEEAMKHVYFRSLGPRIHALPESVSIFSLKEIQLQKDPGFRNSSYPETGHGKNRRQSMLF
CDK17/Cyclin-Y (Homo sapiens), sequence (Q8ND76 2-341 partner limits assumed): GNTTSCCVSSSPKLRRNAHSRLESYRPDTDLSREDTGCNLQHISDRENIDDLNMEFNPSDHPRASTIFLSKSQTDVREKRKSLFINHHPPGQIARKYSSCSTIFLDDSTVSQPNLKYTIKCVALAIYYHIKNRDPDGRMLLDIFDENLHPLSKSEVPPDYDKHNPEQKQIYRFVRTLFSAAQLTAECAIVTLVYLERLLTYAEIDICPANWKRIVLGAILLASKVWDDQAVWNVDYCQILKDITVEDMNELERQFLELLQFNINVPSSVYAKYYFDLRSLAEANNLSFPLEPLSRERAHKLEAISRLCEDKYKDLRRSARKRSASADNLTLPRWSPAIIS

SRSF protein kinase 3 (Homo sapiens), sequence (Q9UPE1 whole entry): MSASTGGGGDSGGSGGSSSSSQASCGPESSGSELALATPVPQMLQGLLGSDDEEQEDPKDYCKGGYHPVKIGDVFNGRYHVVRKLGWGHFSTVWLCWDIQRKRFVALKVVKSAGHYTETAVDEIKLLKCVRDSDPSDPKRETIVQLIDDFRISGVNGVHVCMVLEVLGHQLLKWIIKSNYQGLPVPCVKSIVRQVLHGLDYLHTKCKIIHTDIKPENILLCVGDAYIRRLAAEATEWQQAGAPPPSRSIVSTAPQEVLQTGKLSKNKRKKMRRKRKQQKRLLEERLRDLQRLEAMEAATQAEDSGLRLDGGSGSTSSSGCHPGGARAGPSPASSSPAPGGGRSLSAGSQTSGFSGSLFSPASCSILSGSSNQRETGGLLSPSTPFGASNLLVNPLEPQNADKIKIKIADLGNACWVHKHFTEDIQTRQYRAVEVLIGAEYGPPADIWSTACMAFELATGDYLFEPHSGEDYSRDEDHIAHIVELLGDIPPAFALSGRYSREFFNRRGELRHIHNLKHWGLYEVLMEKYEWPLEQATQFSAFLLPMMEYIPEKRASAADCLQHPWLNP
Cyclin-dependent kinase 5/CDK5 activator 1 (Homo sapiens), sequence (Q00535 whole entry): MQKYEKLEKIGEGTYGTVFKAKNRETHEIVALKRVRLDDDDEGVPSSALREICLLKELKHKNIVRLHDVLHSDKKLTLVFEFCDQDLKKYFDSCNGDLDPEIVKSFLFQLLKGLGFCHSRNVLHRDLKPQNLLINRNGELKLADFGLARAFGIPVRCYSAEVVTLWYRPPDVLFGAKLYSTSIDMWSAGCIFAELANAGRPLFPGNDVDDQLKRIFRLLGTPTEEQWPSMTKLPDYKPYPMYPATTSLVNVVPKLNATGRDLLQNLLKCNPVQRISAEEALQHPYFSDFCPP
Cyclin-dependent kinase 5/CDK5 activator 1 (Homo sapiens), sequence (Q15078 99-307 partner limits assumed): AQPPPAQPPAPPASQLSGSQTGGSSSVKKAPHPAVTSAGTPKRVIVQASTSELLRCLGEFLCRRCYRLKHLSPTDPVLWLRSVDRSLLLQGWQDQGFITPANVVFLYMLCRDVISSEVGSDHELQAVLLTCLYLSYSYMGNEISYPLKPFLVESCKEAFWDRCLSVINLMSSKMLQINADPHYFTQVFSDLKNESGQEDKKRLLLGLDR

In the case of `C[C@H](Nc1ncnc2nc[nH]c12)c1cc2cccc(Cl)c2c(=O)n1-c1ccccc1`, the Activity is 93.5% in [1]; 99.8% in experiment [2]; 95.9% in experiment [3]; 108% in experiment [4]; 97.1% in experiment [5]; 88.3% in experiment [6]. The Activity in experiment [7] was determined as 94.8%; in [8], 102%; in experiment [9] it was 94%; in experiment [10] it was 97.2%.
In the case of `CC[C@H](Nc1ncnc2[nH]cnc12)c1nc2cccc(F)c2c(=O)n1-c1ccccc1`, the Activity in experiment [1] was determined as 95.7%; in [2] it was 99.2%; in [3], 96%; in [4], 108%; in [5] it was 97.4%; in [6], 98.3%. Further, the Activity is 95.1% in experiment [7], 101% in [8], 93.6% in experiment [9] and 96.5% in experiment [10].
With `CC(C)Oc1ccc(-c2nn([C@@H](C)c3oc4ccc(F)cc4c(=O)c3-c3cccc(F)c3)c3ncnc(N)c23)cc1F` [UMBRALISIB], the Activity in [1] was 94.7%; in experiment [2], 96.2%; in experiment [3], 95.8%; in [4] it was 105%; in experiment [5], 91.7%; in [6] it was 87%. Besides, the Activity in experiment [7] is 91.6%; in experiment [8], 107%; in experiment [9], 93%; in experiment [10], 100%.
